Experimental data: patent publication US20240279215A1 (Cytokinetics, Incorporated, priority 2022, published 2024)

Target: human NAMPT (Homo sapiens (Human), UniProt P43490)
Assay: NMN fluorescence biochemical assay (human recombinant NAMPT enzyme assay)
Procedure, shortened: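 Activation of recombinant human NAMPT (6 nM) was tested with 2.5 mM ATP, 20 μM PRPP and 150 μM nicotinamide in 50 mM HEPES pH 7.2 for 60 min at ambient temperature. NMN was derivatized with acetophenone/KOH/formic acid and read by fluorescence (355/460 nm) after 40 min.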

Chain of human NAMPT (P43490 whole entry): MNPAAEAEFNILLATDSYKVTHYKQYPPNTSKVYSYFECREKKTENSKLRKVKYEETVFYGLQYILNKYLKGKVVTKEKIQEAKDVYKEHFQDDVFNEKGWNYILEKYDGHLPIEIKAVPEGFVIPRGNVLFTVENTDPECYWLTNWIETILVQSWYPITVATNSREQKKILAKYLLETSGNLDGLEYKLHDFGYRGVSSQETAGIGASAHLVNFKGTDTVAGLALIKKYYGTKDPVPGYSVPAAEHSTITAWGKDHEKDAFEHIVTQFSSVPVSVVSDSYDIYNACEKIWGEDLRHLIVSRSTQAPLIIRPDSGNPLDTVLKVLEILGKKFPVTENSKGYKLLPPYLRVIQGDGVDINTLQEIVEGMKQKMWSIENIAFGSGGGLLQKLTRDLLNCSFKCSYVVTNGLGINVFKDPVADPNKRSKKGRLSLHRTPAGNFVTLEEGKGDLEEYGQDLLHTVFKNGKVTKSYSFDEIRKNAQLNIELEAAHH

Row | AC1.4 Human | EC50 | SMILES
1 | 1.46 µM | 4.39 µM | Cc1cc(C(=O)NCc2ccc(NC(=O)OCc3ccc(Cl)cc3)cc2)ccn1 [Compound 173, (4-chlorophenyl)methyl N-(4-{[(2-methylpyridin-4-yl)formamido]methyl}phenyl)carbamate]
2 | 0.59 µM | 3.07 µM | CN(Cc1ccc(NC(=O)OCc2ccc(Cl)cc2)cc1)C(=O)c1cn[nH]c1F [Compound 69, (4-chlorophenyl)methyl N-(4-{[1-(3-fluoro-2H-pyrazol-4-yl)-N-methylformamido]methyl}phenyl)carbamate]
3 | 2.13 µM | 12.8 µM | CO[C@@H]1CCCN(C(=O)Cc2ccc(NC(=O)OCc3ccc(Cl)cc3)cc2)C1 [Compound 229, (4-chlorophenyl)methyl N-(4-{2-[(3R)-3-methoxypiperidin-1-yl]-2-oxoethyl}phenyl)carbamate]
4 | 2.32 µM | 1.89 µM | O=C(Nc1ccc(CNC(=O)c2ccc(C(F)(F)F)nc2)cc1)OCc1ccc(Cl)cc1 [Compound 239, (4-chlorophenyl)methyl N-[4-({[6-(trifluoromethyl)pyridin-3-yl]formamido}methyl)phenyl]carbamate]
5 | 1.47 µM | 4.56 µM | CCc1ncoc1C(=O)N(C)Cc1ccc(NC(=O)OCc2ccc(Cl)cc2)cc1 [Compound 176, (4-chlorophenyl)methyl N-(4-{[1-(4-ethyl-1,3-oxazol-5-yl)-N-methylformamido]methyl}phenyl)carbamate]
6 | 2.25 µM | 32.3 µM | O=C(Nc1ccc(CC(=O)N2CCC[C@@H](O)C2)cc1)OCc1ccc(Cl)cc1 [Compound 237, (4-chlorophenyl)methyl N-(4-{2-[(3R)-3-hydroxypiperidin-1-yl]-2-oxoethyl}phenyl)carbamate]
7 | 2.51 µM | 2.4 µM | O=C(Nc1ccc(CNC(=O)c2cccnn2)cc1)OCc1ccc(Cl)cc1 [Compound 248, (4-chlorophenyl)methyl N-{4-[(pyridazin-3-ylformamido)methyl]phenyl}carbamate]
8 | 0.04 µM | 19 µM | CN(C)C(=O)N1CCC(c2ccc(NC(=O)OCc3cnco3)cc2F)CC1 [Compound 411, oxazol-5-ylmethyl (4-(1-(dimethylcarbamoyl)piperidin-4-yl)-3-fluorophenyl)carbamate]
9 | 1.83 µM | 21.1 µM | CN1CC(=O)NC[C@@H]1c1ccc(NC(=O)OCc2ccc(C(F)F)cc2)cc1 [Compound 204, 4-(difluoromethyl)benzyl (S)-(4-(1-methyl-5-oxopiperazin-2-yl)phenyl)carbamate]
10 | 0.24 µM | 12.2 µM | O=C(Nc1ccc(CC2CCN(S(=O)(=O)C3CC3)CC2)cc1)OCc1cnco1 [Compound 460, oxazol-5-ylmethyl (4-((1-(cyclopropylsulfonyl)piperidin-4-yl)methyl)phenyl)carbamate]
11 | 0.53 µM | 2.8 µM | COCCn1nccc1C(=O)N[C@@H](C)c1ccc(NC(=O)OCc2ccc(Cl)cc2)cc1 [Compound 56, (4-chlorophenyl)methyl N-{4-[(1S)-1-{[2-(2-methoxyethyl)pyrazol-3-yl]formamido}ethyl]phenyl}carbamate]
12 | 0.75 µM | 6.8 µM | CC(=O)N1CCC(OCc2ccc(NC(=O)OCc3ccc(Cl)cc3)cc2)CC1 [Compound 93, 4-chlorobenzyl (4-(((1-acetylpiperidin-4-yl)oxy)methyl)phenyl)carbamate]
13 | 1.03 µM | 2.22 µM | CC(C)Cn1nccc1C(=O)N[C@@H](C)c1ccc(NC(=O)OCc2ccc(Cl)cc2)cc1 [Compound 129, (4-chlorophenyl)methyl N-{4-[(1S)-1-{[2-(2-methylpropyl)pyrazol-3-yl]formamido}ethyl]phenyl}carbamate]
14 | 1.27 µM | 33.8 µM | O=C(Nc1ccc(Cc2ccncc2)cc1)OCc1cnco1 [Compound 153, oxazol-5-ylmethyl (4-(pyridin-4-ylmethyl)phenyl)carbamate]
15 | 10.07 µM | 24.3 µM | O=C(Nc1ccc(Cc2nccs2)cc1)OCc1ccc(Cl)cc1 [Compound 336, 4-chlorobenzyl (4-(thiazol-2-ylmethyl)phenyl)carbamate]
16 | 0.25 µM | 0.9 µM | CNS(=O)(=O)N1CCC(Cc2ccc(NC(=O)OCc3ccc(Cl)cc3)cc2)CC1 [Compound 17, 4-chlorobenzyl (4-((1-(N-methylsulfamoyl)piperidin-4-yl)methyl)phenyl)carbamate]

Row | AC1.4 Human | EC50 | SMILES
17 | 1.73 µM | 8.13 µM | COc1cc(C(=O)NCc2ccc(NC(=O)OCc3ccc(Cl)cc3)cc2)cnc1C [Compound 195, (4-chlorophenyl)methyl N-(4-{[(5-methoxy-6-methylpyridin-3-yl)formamido]methyl}phenyl)carbamate]
18 | 1.03 µM | 4.75 µM | CN(Cc1ccc(NC(=O)OCc2ccc(Cl)cc2)cc1)C(=O)N1CCCC1 [Compound 128, 4-chlorobenzyl (4-((N-methylpyrrolidine-1-carboxamido)methyl)phenyl)carbamate]
19 | 0.98 µM | 6.02 µM | Cc1nc(C)c(C(=O)N[C@@H](C)c2ccc(NC(=O)OCc3ccc(Cl)cc3)cc2)o1 [Compound 125, 4-chlorobenzyl (S)-(4-(1-(2,4-dimethyloxazole-5-carboxamido)ethyl)phenyl)carbamate]
20 | 2.11 µM | 21.4 µM | CN1CC[C@H](NCc2ccc(NC(=O)OCc3ccc(Cl)cc3)cc2)C1=O [Compound 228, 4-chlorobenzyl (S)-(4-(((1-methyl-2-oxopyrrolidin-3-yl)amino)methyl)phenyl)carbamate]
21 | 0.57 µM | 4.93 µM | O=C(Nc1ccc(CN2C(=O)CC3CC32)cc1)OCc1ccc(Cl)cc1 (stereo not shown) [Compound 63, (4-chlorophenyl)methyl N-[4-({3-oxo-2-azabicyclo[3.1.0]hexan-2-yl}methyl)phenyl]carbamate]
22 | 3.43 µM | 29 µM | O=C(Nc1ccc(Cc2ncccn2)cc1)OCc1ccc(Cl)cc1 [Compound 279, 4-chlorobenzyl (4-(pyrimidin-2-ylmethyl)phenyl)carbamate]
23 | 1.18 µM | 10.8 µM | C[C@@H](c1ccc(NC(=O)OCc2ccc(Cl)cc2)cc1)N(C)C(=O)N1CCCC1 [Compound 143, 4-chlorobenzyl (S)-(4-(1-(N-methylpyrrolidine-1-carboxamido)ethyl)phenyl)carbamate]
24 | 2.94 µM | 23.2 µM | O=C(Nc1ccc(CNC(=O)N2CCC2)cc1)OCc1ccc(Cl)cc1 [Compound 265, (4-chlorophenyl)methyl N-{4-[(azetidine-1-carbonylamino)methyl]phenyl}carbamate]
25 | 0.22 µM | 0.34 µM | Cc1nn(C)c(C(=O)N[C@@H](C)c2ccc(NC(=O)OCc3ccc(Cl)cc3)cc2)c1C [Compound 12, (4-chlorophenyl)methyl N-{4-[(1S)-1-[(2,4,5-trimethylpyrazol-3-yl)formamido]ethyl]phenyl}carbamate]
26 | 0.94 µM | 19.7 µM | Cc1ccc(Cc2ccc(NC(=O)OCc3cncs3)cc2)cn1 [Compound 114, thiazol-5-ylmethyl (4-((6-methylpyridin-3-yl)methyl)phenyl)carbamate]
27 | 1.62 µM | 6.85 µM | Cc1nn(C)c(C(=O)N(C)Cc2ccc(NC(=O)OCc3ccc(Cl)cc3)cc2)c1F [Compound 188, (4-chlorophenyl)methyl N-(4-{[1-(4-fluoro-2,5-dimethylpyrazol-3-yl)-N-methylformamido]methyl}phenyl)carbamate]
28 | 0.50 µM | 40.3 µM | Cc1ccc(Cc2ccc(NC(=O)OCc3cnco3)cc2)cn1 [Compound 51, oxazol-5-ylmethyl (4-((6-methylpyridin-3-yl)methyl)phenyl)carbamate]
29 | 13.04 µM | 34 µM | Cc1noc(Cc2ccc(NC(=O)OCc3ccc(Cl)cc3)cc2)n1 [Compound 344, (4-chlorophenyl)methyl N-{4-[(3-methyl-1,2,4-oxadiazol-5-yl)methyl]phenyl}carbamate]
30 | 4.86 µM | 17.2 µM | CC(C)Cn1nccc1C(=O)NCc1ccc(NC(=O)OCc2ccc(Cl)cc2)cc1 [Compound 302, (4-chlorophenyl)methyl N-[4-({[2-(2-methylpropyl)pyrazol-3-yl]formamido}methyl)phenyl]carbamate]
31 | 0.13 µM | 14.5 µM | O=C(Nc1ccc(CC2CCN(C(=O)N3CCC3)CC2)cc1)OCc1cnco1 [Compound 468, oxazol-5-ylmethyl (4-((1-(azetidine-1-carbonyl)piperidin-4-yl)methyl)phenyl)carbamate]

Row | SMILES | AC1.4 Human | EC50
32 | O=C(Nc1ccc(CC2CC3CCC(C2)N3C(=O)N2CCC2)cc1)OCc1cnco1 (stereo not shown) [Compound 392, oxazol-5-ylmethyl (4-((8-(azetidine-1-carbonyl)-8-azabicyclo[3.2.1]octan-3-yl)methyl)phenyl)carbamate] | 0.13 µM | 6.9 µM
33 | CC(C)C(=O)N1CC2CC(C1)C2Cc1ccc(NC(=O)OCc2cnco2)cc1 (stereo not shown) [Compound 437, oxazol-5-ylmethyl (4-((3-isobutyryl-3-azabicyclo[3.1.1]heptan-6-yl)methyl)phenyl)carbamate] | 0.27 µM | 9.67 µM
34 | O=C(Nc1ccc(CC2CC3CCC(C2)N3C(=O)N2CCOCC2)cc1)OCc1cnco1 (stereo not shown) [Compound 389, oxazol-5-ylmethyl (4-((8-(morpholine-4-carbonyl)-8-azabicyclo[3.2.1]octan-3-yl)methyl)phenyl)carbamate] | 0.09 µM | 3.75 µM
35 | CN(C)S(=O)(=O)N1C2CCC1CC(Cc1ccc(NC(=O)OCc3cnco3)cc1)C2 (stereo not shown) [Compound 405, oxazol-5-ylmethyl (4-((8-(N,N-dimethylsulfamoyl)-8-azabicyclo[3.2.1]octan-3-yl)methyl)phenyl)carbamate] | 0.11 µM | 3.42 µM
